Here are results for 17 compounds from patent publication US6489295B1, “Antagonists of intestinotrophic GLP-2 peptides” (1149336 Ontario Inc., priority 1996, dated 2002).

For data set [1], the target named is T1, human placental DPP-IV (Homo sapiens, UniProt P27487).
Experimental: (§1) To perform the assay, 2.5 microliters (μl) of a solution of human placental DPP-IV (Calbiochem, La Jolla, Calif., cat. # 317624) containing 0.125 milliunits (mU) of enzyme in 50% glycerol, mM Tris, pH 7.8, EDTA and 0.02% NaN3 was added to 50 μl of a solution of the test peptide prepared at a concentration of 0.2 mg/ml in PBS at pH 7.4. The mixture was incubated at 37° C. in a circulating water bath for 24 hours. The incubation was quenched by the addition of 50 μl of a solution of diprotin A prepared at a concentration of 4 mg/ml in PBS. Each peptide was tested in duplicate.
(§2) Each sample was analyzed by reverse-phase (RP) HPLC as follows: 90 μl of the quenched incubation mixture was injected onto a Rainin Dynamax 300 Å, C18, 5 micron, 4.6×250 millimeter column. The samples were eluted with 0.1% trifluoroacetic acid (TFA) in water modified with 0.1% acetonitrile using a linear gradient and a flow rate of 1 ml per minute. Sample components were detected at 214 nanometers (nm). The extent of cleavage was measured by relative integration of the peak corresponding to the cleavage product compared to that of the remaining undigested parent peptide.
In data set [2] the target is T1, human placental DPP-IV. The data set can be described thus: Assay for resistance to dipeptidyl peptidase IV. As to conditions: 24 hours at 37° C., RP-HPLC.
Experimental: as §1, §2
Data set [3] relates to intestinotrophic activity of rat GLP-2. The data set can be described thus: GLP-2 antagonist assessment by co-administration into mice with GLP-2 (small bowel weight). The data set is classed as in vivo. Conditions: CD1 female mice, 10-14 days. The protocol:
The candidate peptide antagonist and rat GLP-2 were dissolved in PBS to give a final ratio of 25 μg antagonist/2.5 μg GLP-2 per 0.5 ml phosphate buffered saline solution (for a 10:1 ratio), or […] antagonist/2.5 μg GLP-2 per 0.5 ml phosphate buffered saline solution (for a 4:1 ratio), as indicated. The antagonist/GLP-2 mixture was administered to 6-8 week old CD1 female mice subcutaneously, with the amount of peptide injected being 25 μg antagonist/2.5 μg GLP-2 in 0.5 ml twice a day, or 12.5 μg antagonist/2.5 μg GLP-2 in 0.5 ml twice a day. After 10-14 days, peptide-injected and control (saline-injected) mice were sacrificed, and small bowel weights were determined.

[4] abbreviates: antagonist to GLP-2 ratio 10:1 by weight (25 μg/2.5 μg rat GLP-2) s.c. twice a day.

Where two headings read alike, the source gives them in different places. Non-standard residues stand in square brackets, D forms with d. Residues, ends and D or L forms follow the SMILES beside them. No end group written: not given here. pY = N[C@@H](Cc1ccc(OP(=O)(O)O)cc1)C(=O)O

T1 sequence (P27487 whole entry): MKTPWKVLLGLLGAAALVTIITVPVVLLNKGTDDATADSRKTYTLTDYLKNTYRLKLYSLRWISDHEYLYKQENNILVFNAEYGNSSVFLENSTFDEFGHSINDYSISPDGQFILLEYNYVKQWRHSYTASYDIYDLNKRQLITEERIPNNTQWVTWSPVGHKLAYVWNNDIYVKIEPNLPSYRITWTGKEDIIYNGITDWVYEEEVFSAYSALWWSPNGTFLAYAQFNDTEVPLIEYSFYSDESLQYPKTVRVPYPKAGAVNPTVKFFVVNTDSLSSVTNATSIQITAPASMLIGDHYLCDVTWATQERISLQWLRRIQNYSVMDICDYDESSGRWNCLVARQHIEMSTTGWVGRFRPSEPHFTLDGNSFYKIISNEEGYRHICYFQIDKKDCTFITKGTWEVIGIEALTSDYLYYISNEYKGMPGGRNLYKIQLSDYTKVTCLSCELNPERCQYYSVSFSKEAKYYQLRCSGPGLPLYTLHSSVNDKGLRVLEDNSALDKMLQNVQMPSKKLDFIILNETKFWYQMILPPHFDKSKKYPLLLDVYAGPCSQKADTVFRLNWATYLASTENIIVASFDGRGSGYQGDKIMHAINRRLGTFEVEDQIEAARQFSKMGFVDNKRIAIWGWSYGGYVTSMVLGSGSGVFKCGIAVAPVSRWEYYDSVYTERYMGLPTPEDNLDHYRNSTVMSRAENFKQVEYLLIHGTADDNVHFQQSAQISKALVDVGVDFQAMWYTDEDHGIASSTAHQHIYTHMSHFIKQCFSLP

Regarding `CC[C@H](C)[C@H](NC(=O)[C@H](Cc1ccccc1)NC(=O)[C@H](CC(=O)O)NC(=O)[C@H](CCCNC(=N)N)NC(=O)[C@H](C)NC(=O)[C@H](C)NC(=O)[C@H](CC(C)C)NC(=O)[C@H](CC(N)=O)NC(=O)[C@H](CC(=O)O)NC(=O)[C@H](CC(C)C)NC(=O)[C@@H](NC(=O)[C@@H](NC(=O)[C@H](CC(N)=O)NC(=O)[C@H](CCSC)NC(=O)[C@H](CCC(=O)O)NC(=O)[C@H](CC(=O)O)NC(=O)[C@H](CO)NC(=O)[C@H](Cc1ccccc1)NC(=O)[C@H](CO)NC(=O)CNC(=O)[C@H](CC(=O)O)NC(=O)[C@H](Cc1ccc(OP(=O)(O)O)cc1)NC(=O)[C@@H](N)Cc1c[nH]cn1)[C@@H](C)O)[C@@H](C)CC)C(=O)N[C@@H](CC(N)=O)C(=O)N[C@@H](Cc1c[nH]c2ccccc12)C(=O)N[C@@H](CC(C)C)C(=O)N[C@H](C(=O)N[C@@H](CCC(N)=O)C(=O)N[C@H](C(=O)N[C@@H](CCCCN)C(=O)N[C@H](C(=O)N[C@H](C(=O)N[C@@H](CC(=O)O)C(=O)O)[C@@H](C)O)[C@@H](C)CC)[C@@H](C)O)[C@@H](C)CC` [[PO3-Tyr^2]GLP-2] (H-H[pY]DGSFSDEMNTILDNLAARDFINWLIQTKITD-OH; N-terminus and C-terminus assumed), at human placental DPP-IV [1], the “cleavage products detected after DPP-IV incubation” value (“cleavage products detected” below) is listed as “No cleavage products were detected”. The same measure, in the same setting: the value for “HCDGSFSDEMNTILDNLAARDFINWLIQTKITD [[Cys^2]GLP-2]” was “No cleavage products were detected”. Consider “HEDGSFSDEMNTILDNLAARDFINWLIQTKITD [[Glu^2]GLP-2]”, for which the “cleavage products detected” value on human placental DPP-IV [1] is “No cleavage products were detected”. Take “HGDGSFSDEMNTILANLAARDFINWLIQTKITD [[Gly^2, Ala^15]GLP-2]”: the “cleavage products detected” value on human placental DPP-IV [1] is “No cleavage products were detected”. On the same count and under the same terms, the value for “HGDGSFSDEMNTILDNLAARDAINWLIQTKITD [[Gly^2, Ala^22]GLP-2]” was “No cleavage products were detected”. The same measure, in the same setting: the value for “HGDGSFSDEMNTILDNLAARDFINWLIQAKITD [[Gly^2, Ala^29]GLP-2]” was “No cleavage products were detected”; that for “HGDGSFSDEMNTILDNLAARDFINWLIQTKIAD [[Gly^2, Ala^32]GLP-2]” was “No cleavage products were detected”. Same read-out and setting: as for “HGDGSFSDEMNTILDNLAARDFINWLIQTKITA [[Gly^2, Ala^33]GLP-2]”, the entry is “No cleavage products were detected”; as for “HLDGSFSDEMNTILDNLAARDFINWLIQTKITD [[Leu^2]GLP-2]”, “No cleavage products were detected”. Regarding “HRDGSFSDEMNTILDNLAARDFINWLIQTKITD [[Arg^2]GLP-2]”, at human placental DPP-IV [1], the “cleavage products detected” value is “No cleavage products were detected”.

“HWDGSFSDEMNTILDNLAARDFINWLIQTKITD [[Trp^2]GLP-2]”: the “cleavage products detected” value on human placental DPP-IV [1] is on record as “No cleavage products were detected”.

For [D-Ala^2]ratGLP-2, the “cleavage products detected” value on human placental DPP-IV [2] was “No cleavage products were detected”. Same read-out and setting: the value for [Gly^2]ratGLP-2 was “No cleavage products were detected”. Turning to ratGLP-2(2-33), the “% Antagonism” value in data set [3] (setting [4]) is reported as 42%. For the compound ratGLP-2(3-33), in data set [3] (antagonist to GLP-2 ratio 4:1 by weight (12.5 μg/2.5 μg rat GLP-2) s.c. twice a day), the “% Antagonism” value worked out at 33%. Consider ratGLP-2(4-33), for which, in data set [3] (setting [4]), the “% Antagonism” value was found to be 32%.

Consider ratGLP-2(5-33), for which, in data set [3] (setting [4]), the “% Antagonism” value turned out to be 16%.
